Counter-ions that a name gives are not always drawn. Like-named read-outs stand apart in the source and are kept apart here.
Assays:
[1] = test system: Target C; test: Protein abundance, HiBit-assay system (Promega), Target C; assay type: cell-based, human; details: Table 6; HiBiT-modified K562 cells, 24 hours
Protocol: Compounds described herein were used to screen for effects on quantitative protein abundance using a HiBit assay system (Promega). Quantitative protein abundance was determined by measuring the protein levels of HiBit-tagged protein targets expressed in cell culture via luminescence using the Nano-Glo HiBiT Lytic Detection System, which uses a split complementation assay format to reconstitute NanoBiT enzyme to generate a luminescent signal. A protein abundance assay was developed such that endogenous protein targets could be modified with the HiBiT peptide tag and their abundance could be assessed after compound treatment. Briefly, K562 cell lines containing a HiBiT-modification were treated with various compounds described herein (e.g., compounds of Formulas (I) or (II)). After treatment for 24 hours, the protein abundance of a specific target was determined by measuring luminescence.
Cells were maintained in EIDM with 10% FBS. Before the assay, cells were diluted with […] growth media (EIDM+1% FBS media) and were seeded in a 384-well plate at a density of 10000 cells/well (for each cell line listed in Table 5). Each compound was prepared as a 10-point 3-fold serial dilution in DMSO with the top dose at a final concentration of 10 μM in the well. Unmodified K562 cells were added at the previously specified density with DMSO to serve as an assay baseline and positive control (PC) and DMSO only with the respective modified cell lines was added to the negative control (NC) columns. Final DMSO concentration was kept at or below 0.25%. Treated cell plates were placed in an incubator at 37° C. with 5% CO2 for 24 hours. After 24 hours, 25 μL of Complete HiBit Lytic reagent was added to each well at room temperature (e.g. one plate requiring 10 mL Lytic Buffer, 100 μL LgBiT Protein, 200 μL Lytic Substrate), shaken for 5 minutes at 600 RPM, then left to sit for 10 minutes for signal to stabilize before reading on a Spark Cyto plate reader (Tecan) with a 500 ms measurement time.
To determine compound effects on protein abundance of each target in Table 6, the percent response for each respective cell line was calculated at each compound concentration as follows:
For the normalized response at each concentration, a four-parameter logistical regression was fit to the data and the response was interpolated at the 50% value to determine a concentration for protein abundance at […] the untreated control.

[2] = test system: HTT mRNA; test: Splicing RT-qPCR assay, HTT canonical (CJ) and alternative (AJ) junction mRNA; assay type: cell-based, human; details: Homo sapiens, A673 or K562 cells, 24 hours compound treatment; for IC50: read-out: HTT CJ (IC50, decrease in canonical junction mRNA); for AC50: read-out: HTT AJ (AC50, increase in alternative junction mRNA)
Summary of the method: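 A673 or K562 cells were treated 24 h at 37 °C with an 11-point 3-fold compound dilution series (top 10 uM, DMSO ≤0.25%). Lysates went to one-step RT-qPCR measuring canonical (CJ) and alternative-exon (AJ) junction transcripts, normalized to GAPDH, GUSB or PPIA.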

Structure (SMILES)	IC50 [1]	IC50 ([2]; 24 h)	AC50 [2]	IC50 [2]
Cc1cn2nc(NC(=O)c3ccc(C4CCNCC4)c4cc(C)oc34)cc(C)c2n1 [Compound 118]	1000 to 10000 nM	–	–	–
Cc1cn2nc(NC(=O)c3ccc(C4CCNCC4)c4ccoc34)cc(C)c2n1 [Compound 119]	> 10000 nM	1000 to 10000 nM	> 10000 nM	–
Cc1cn2cc(NC(=O)c3ccc(N4CCNCC4)c4nc(C)oc34)cc(F)c2n1 [Compound 140]	1000 to 10000 nM	–	–	–
Cc1cn2cc(NC(=O)c3ccc(N4CCNCC4)c4oc(C)nc34)cc(F)c2n1 [Compound 141]	1000 to 10000 nM	< 100 nM	< 100 nM	–
Cc1cn2cc(NC(=O)c3ccc(N4CCNCC4)c4cc(C)oc34)cc(F)c2n1 [Compound 142]	1000 to 10000 nM	1000 to 10000 nM	1000 to 10000 nM	–
Cc1cn2cc(NC(=O)c3ccc(N4CCNCC4)c4cn(C)nc34)cc(F)c2n1 [Compound 143, N-{8-fluoro-2-methylimidazo[1,2-a]pyridin-6-yl}-2-methyl-4-(piperazin-1-yl) indazole-7-carboxamide]	< 100 nM	–	–	–
Cc1cn2cc(NC(=O)c3ccc(C4CCNCC4)c4cc(C)oc34)cc(F)c2n1 [Compound 145]	1000 to 10000 nM	1000 to 10000 nM	1000 to 10000 nM	–
Cc1cn2nc(NC(=O)c3ccc(N4CCNCC4)c4cc(C)oc34)cc(C)c2n1 [Compound 148]	1000 to 10000 nM	1000 to 10000 nM	1000 to 10000 nM	–
Cc1cn2cc(NC(=O)c3ccc(C4CCNCC4)c4ccoc34)cc(F)c2n1 [Compound 149]	1000 to 10000 nM	1000 to 10000 nM	1000 to 10000 nM	–
Cc1cn2cc(NC(=O)c3ccc(N4CCN(C)CC4)c4cc(C)oc34)cc(F)c2n1 [Compound 189]	1000 to 10000 nM	1000 to 10000 nM	1000 to 10000 nM	–
Cc1cn2cc(NC(=O)c3ccc(N4CCNC(C)C4)c4cc(C)oc34)cc(F)c2n1 (stereo not shown) [Compound 190]	1000 to 10000 nM	100 to 1000 nM	100 to 1000 nM	–
Cc1cn2cc(NC(=O)c3ccc(N4CCN(C)C(C)C4)c4cc(C)oc34)cc(F)c2n1 (stereo not shown) [Compound 191]	1000 to 10000 nM	100 to 1000 nM	1000 to 10000 nM	–
CCC1CN(c2ccc(C(=O)Nc3cc(F)c4nc(C)cn4c3)c3oc(C)cc23)CCN1 (stereo not shown) [Compound 192]	1000 to 10000 nM	1000 to 10000 nM	1000 to 10000 nM	–
Cc1cn2cc(NC(=O)c3ccc(N4CCNC(C)(C)C4)c4cc(C)oc34)cc(F)c2n1 [Compound 193]	> 10000 nM	1000 to 10000 nM	1000 to 10000 nM	–
Cc1cn2cc(NC(=O)c3ccc(N4CCNC5(CC5)C4)c4cc(C)oc34)cc(F)c2n1 [Compound 194]	> 10000 nM	–	–	–
Cc1cn2cc(NC(=O)c3ccc(N4CC(C)(C)NC(C)(C)C4)c4cc(C)oc34)cc(F)c2n1 [Compound 195]	1000 to 10000 nM	> 10000 nM	> 10000 nM	–

Structure (SMILES)	IC50 [1]	IC50 ([2]; 24 h)	AC50 [2]	IC50 [2]
CCNC1CCN(c2ccc(C(=O)Nc3cc(F)c4nc(C)cn4c3)c3oc(C)cc23)CC1 [Compound 196]	1000 to 10000 nM	–	–	–
Cc1cn2cc(NC(=O)c3ccc(N4CCC(NC(C)(C)C)CC4)c4cc(C)oc34)cc(F)c2n1 [Compound 197]	> 10000 nM	> 10000 nM	> 10000 nM	–
CC1=CC2C(N3CCC(N(C)C)CC3)=CC=C(C(=O)Nc3cc(F)c4nc(C)cn4c3)C2O1 (stereo not shown) [Compound 198]	> 10000 nM	–	–	–
Cc1cn2cc(NC(=O)c3ccc(N4CCN5CCCC5C4)c4cc(C)oc34)cc(F)c2n1 (stereo not shown) [Compound 199]	> 10000 nM	100 to 1000 nM	100 to 1000 nM	–
Cc1cn2cc(NC(=O)c3ccc(C4CCNCC4)c4cn(C)nc34)cc(F)c2n1 [Compound 208]	100 to 1000 nM	–	–	–
Cc1cc2c(N3CCNCC3)ccc(C(=O)Nc3cc(F)c4cn(C)nc4c3)c2o1 [Compound 217]	> 10000 nM	> 10000 nM	> 10000 nM	–
CCn1cc2c(N3CC[C@@H](NC)C3)ccc(C(=O)Nc3cc(Cl)c4nc(C)cn4c3)c2n1 [Compound 556, N-{8-chloro-2-methylimidazo[1,2-a]pyridin-6-yl}-2-ethyl-4-[(3R)-3-(methylamino)pyrrolidin-1-yl]indazole-7-carboxamide]	1000 to 10000 nM	> 10000 nM	> 10000 nM	–
CCn1cc2c(N3CCC(N)(CC)CC3)cc(F)c(C(=O)Nc3cc(F)c4nc(C)cn4c3)c2n1 [Compound 557, 4-(4-amino-4-ethylpiperidin-1-yl)-2-ethyl-6-fluoro-N-{8-fluoro-2-methylimidazo[1,2-a]pyridin-6-yl}indazole-7-carboxamide]	100 to 1000 nM	100 to 1000 nM	100 to 1000 nM	–
CCn1cc2c(N3CCC(N[C@H]4C[C@@H](O)C4)CC3)ccc(C(=O)Nc3cc(F)c4nc(C)cn4c3)c2n1 [Compound 559, 2-ethyl-N-{8-fluoro-2-methylimidazo[1,2-a]pyridin-6-yl}-4-(4-{[(1s,3s)-3-hydroxycyclobutyl]amino}piperidin-1-yl) indazole-7-carboxamide]	100 to 1000 nM	1000 to 10000 nM	1000 to 10000 nM	–
CCn1cc2c(N3CCC(N[C@H]4C[C@H](O)C4)CC3)ccc(C(=O)Nc3cc(F)c4nc(C)cn4c3)c2n1 [Compound 560, 2-ethyl-N-{8-fluoro-2-methylimidazo[1,2-a]pyridin-6-yl}-4-(4-{[(1r,3r)-3-hydroxycyclobutyl]amino}piperidin-1-yl) indazole-7-carboxamide]	1000 to 10000 nM	1000 to 10000 nM	1000 to 10000 nM	–
Cc1cn2cc(NC(=O)c3ccc(N4CC[C@@H](N5CCNCC5)C4)c4cn(C)nc34)cc(F)c2n1 [Compound 562, N-{8-fluoro-2-methylimidazo[1,2-a]pyridin-6-yl}-2-methyl-4-[(3R)-3-(piperazin-1-yl)pyrrolidin-1-yl]indazole-7-carboxamide hydrochloride]	> 10000 nM	> 10000 nM	> 10000 nM	–
Cc1cn2cc(NC(=O)c3ccc(N4CC5NC5C4)c4cn(C)nc34)cc(F)c2n1 (stereo not shown) [Compound 563, 4-{3,6-diazabicyclo[3.1.0]hexan-3-yl}-N-{8-fluoro-2-methylimidazo[1,2-a]pyridin-6-yl}-2-methylindazole-7-carboxamide]	100 to 1000 nM	–	100 to 1000 nM	100 to 1000 nM
Cc1cn2cc(NC(=O)c3ccc(N4C5CNCC54)c4cn(C)nc34)cc(F)c2n1 (stereo not shown) [Compound 564, 4-{3,6-diazabicyclo[3.1.0]hexan-6-yl}-N-{8-fluoro-2-methylimidazo[1,2-a]pyridin-6-yl}-2-methylindazole-7-carboxamide]	100 to 1000 nM	–	100 to 1000 nM	100 to 1000 nM
CCn1cc2c(N3CCNCC3)ccc(C(=O)Nc3cc(F)c4nc(C)c(F)n4c3)c2n1 [Compound 565, N-{3,8-difluoro-2-methylimidazo[1,2-a]pyridin-6-yl}-2-ethyl-4-(piperazin-1-yl) indazole-7-carboxamide; trifluoroacetic acid]	> 10000 nM	> 10000 nM	> 10000 nM	–
CCn1cc2c(N3CCNCC3)ccc(C(=O)Nc3cn4cc(C)nc4c(Oc4ccccc4)n3)c2n1 [Compound 566, 2-ethyl-N-{2-methyl-8-phenoxyimidazo[1,2-a]pyrazin-6-yl}-4-(piperazin-1-yl) indazole-7-carboxamide]	1000 to 10000 nM	1000 to 10000 nM	1000 to 10000 nM	–

— US20250154169A1, “COMPOUNDS AND METHODS FOR MODULATING SPLICING” (REMIX THERAPEUTICS INC., priority 2021, published 2025)
